Data taken from ChEMBL document CHEMBL1921682, “Molecular properties prediction and synthesis of novel 1,3,4-oxadiazole analogues as potent antimicrobial and antitubercular agents” (Bioorg Med Chem Lett, 2011).
Values after ≈ are worked out from the molar mass of the structure shown.

Key:
[1] = Octanol-water partition coefficient, log P of the compound; type: physicochemical
Pseudomonas aeruginosa = assay: Antibacterial activity against Pseudomonas aeruginosa ATCC 10145 by broth dilution technique; type: functional
[2] = test system: Mycobacterium tuberculosis; assay: microbe, parasite or virus in culture; details: H37Rv
Description: Antimycobacterial activity against Mycobacterium tuberculosis H37Rv by agar double dilution technique

Escherichia coli = assay: Antibacterial activity against Escherichia coli NCIM 5051 by broth dilution technique; type: functional
Aspergillus niger = assay: Antifungal activity against Aspergillus niger NCIM 1196 by agar diffusion method; type: functional
Candida albicans = assay: Antifungal activity against Candida albicans NCIM 3417 by agar diffusion method; type: functional
Bacillus subtilis = assay: Antibacterial activity against Bacillus subtilis NCIM 2439 by broth dilution technique; type: functional
Staphylococcus aureus = assay: Antibacterial activity against Staphylococcus aureus NCIM 2079 by broth dilution technique; type: functional

| SMILES | logP [1] | MIC (Pseudomonas aeruginosa) [µg/mL] | MIC90 [2] [µM] | MIC (Escherichia coli) [µg/mL] | MIC (Aspergillus niger) [µg/mL] | MIC (Candida albicans) [µg/mL] | MIC (Bacillus subtilis) [µg/mL] | MIC (Staphylococcus aureus) [µg/mL] |
| --- | --- | --- | --- | --- | --- | --- | --- | --- |
| Cc1ccc(-c2nnc(CNc3c(C)n(C)n(-c4ccccc4)c3=O)o2)cc1 | 2.48 | 512 (≈ 1360 µM) | 10 (≈ 3.75 µg/mL) | 256 (≈ 682 µM) | 4 (≈ 10.7 µM) | 4 (≈ 10.7 µM) | 512 (≈ 1360 µM) | 512 (≈ 1360 µM) |
| Cc1ccccc1-c1nnc(CNc2c(C)n(C)n(-c3ccccc3)c2=O)o1 | 2.38 | 512 (≈ 1360 µM) | > 13.3 | 256 (≈ 682 µM) | 8 (≈ 21.3 µM) | 16 (≈ 42.6 µM) | 256 (≈ 682 µM) | 256 (≈ 682 µM) |
| Cc1c(NCc2nnc(-c3ccc(N)cc3)o2)c(=O)n(-c2ccccc2)n1C | 1.13 | 64 (≈ 170 µM) | 4.15 (≈ 1.56 µg/mL) | 16 (≈ 42.5 µM) | 128 (≈ 340 µM) | 128 (≈ 340 µM) | 32 (≈ 85 µM) | 16 (≈ 42.5 µM) |
| Cc1c(NCc2nnc(-c3ccccc3)o2)c(=O)n(-c2ccccc2)n1C | 2.02 | 512 (≈ 1420 µM) | 10 (≈ 3.61 µg/mL) | 512 (≈ 1420 µM) | 512 (≈ 1420 µM) | 512 (≈ 1420 µM) | 512 (≈ 1420 µM) | 512 (≈ 1420 µM) |
| O=C(O)c1cn(C2CC2)c2cc(N3CCNCC3)c(F)cc2c1=O [CIPROFLOXACIN] |  | 4 (≈ 12.1 µM) |  |  |  |  | 4 (≈ 12.1 µM) | 4 (≈ 12.1 µM) |
| Cc1c(NCc2nnc(-c3ccccc3Cl)o2)c(=O)n(-c2ccccc2)n1C | 2.72 | 8 (≈ 20.2 µM) | 1.97 (≈ 0.78 µg/mL) | 4 (≈ 10.1 µM) | 256 (≈ 647 µM) | 256 (≈ 647 µM) | 4 (≈ 10.1 µM) | 4 (≈ 10.1 µM) |
| Cc1c(NCc2nnc(-c3ccc(Cl)cc3)o2)c(=O)n(-c2ccccc2)n1C | 2.7 | 8 (≈ 20.2 µM) | 3.94 (≈ 1.56 µg/mL) | 4 (≈ 10.1 µM) | 256 (≈ 647 µM) | 128 (≈ 323 µM) | 8 (≈ 20.2 µM) | 8 (≈ 20.2 µM) |
| Cc1c(NCc2nnc(-c3cccs3)o2)c(=O)n(-c2ccccc2)n1C | 1.9 | 8 (≈ 21.8 µM) | 6.81 (≈ 2.5 µg/mL) | 8 (≈ 21.8 µM) | 128 (≈ 348 µM) | 256 (≈ 697 µM) | 16 (≈ 43.5 µM) | 8 (≈ 21.8 µM) |
| Cc1c(NCc2nnc(Cc3ccccc3)o2)c(=O)n(-c2ccccc2)n1C | 1.64 | 256 (≈ 682 µM) | 10 (≈ 3.75 µg/mL) | 256 (≈ 682 µM) | 512 (≈ 1360 µM) | 512 (≈ 1360 µM) | 256 (≈ 682 µM) | 256 (≈ 682 µM) |
| OC(Cn1cncn1)(Cn1cncn1)c1ccc(F)cc1F [FLUCONAZOLE] |  |  |  |  | 2 (≈ 6.53 µM) | 1 (≈ 3.27 µM) |  |  |
| NNC(=O)c1ccncc1 [ISONIAZID] |  |  | 0.78 (≈ 0.107 µg/mL) |  |  |  |  |  |
| Cc1c(NCc2nnc(-c3ccccc3O)o2)c(=O)n(-c2ccccc2)n1C | 1.71 | 128 (≈ 339 µM) | > 13.2 | 128 (≈ 339 µM) | 8 (≈ 21.2 µM) | 16 (≈ 42.4 µM) | 64 (≈ 170 µM) | 128 (≈ 339 µM) |
| CC(=O)Oc1ccccc1-c1nnc(CNc2c(C)n(C)n(-c3ccccc3)c2=O)o1 | 1.98 | 512 (≈ 1220 µM) | > 12.8 | 256 (≈ 610 µM) | 512 (≈ 1220 µM) | 512 (≈ 1220 µM) | 256 (≈ 610 µM) | 512 (≈ 1220 µM) |
| Cc1c(NCc2nnc(-c3ccncc3)o2)c(=O)n(-c2ccccc2)n1C | 0.8 | 32 (≈ 88.3 µM) | 0.78 (≈ 0.283 µg/mL) | 16 (≈ 44.2 µM) | 256 (≈ 706 µM) | 256 (≈ 706 µM) | 16 (≈ 44.2 µM) | 16 (≈ 44.2 µM) |
| Cc1c(NCc2nnc(COc3ccccc3)o2)c(=O)n(-c2ccccc2)n1C | 0.98 | 128 (≈ 327 µM) | 12.8 (≈ 5 µg/mL) | 64 (≈ 164 µM) | > 512 | 512 (≈ 1310 µM) | 128 (≈ 327 µM) | 128 (≈ 327 µM) |
| COc1ccc(-c2nnc(CNc3c(C)n(C)n(-c4ccccc4)c3=O)o2)cc1 | 2.07 | > 512 | > 12.8 | 256 (≈ 654 µM) | 16 (≈ 40.9 µM) | 32 (≈ 81.8 µM) | > 512 | > 512 |
| Cc1cccc(-c2nnc(CNc3c(C)n(C)n(-c4ccccc4)c3=O)o2)c1 | 2.39 | > 512 | > 13.3 | 512 (≈ 1360 µM) | 128 (≈ 341 µM) | 256 (≈ 682 µM) | > 512 | > 512 |
